Legend:
[1] = biological target: Met(h) (Homo sapiens, UniProt P08581); test: Upstate kinase activity inhibition assay Met(h)
[2] = biological target: TSSK1(h) (Homo sapiens, UniProt Q9BXA7); test: Upstate kinase activity inhibition assay TSSK1(h); settings: 40 min, read-out: percentage of enzyme activity that remains
[3] = biological target: TrkA(h) (Homo sapiens, UniProt P04629); test: Upstate kinase activity inhibition assay TrkA(h); settings: 40 min, read-out: percentage of enzyme activity that remains
[4] = biological target: T1, PKCγ(h) (Homo sapiens, UniProt P05129); test: Upstate kinase activity inhibition assay PKCγ(h); assay type: biochemical; settings: 40 min; read-out: percentage of enzyme activity that remains
T1 construct: purchased Upstate (KinaseProfiler service)

[5] = biological target: ZIPK(h) (Homo sapiens, UniProt O43293); test: Upstate kinase activity inhibition assay ZIPK(h); settings: 40 min, read-out: percentage of enzyme activity that remains
[6] = biological target: T2, IRAK4(h) (Homo sapiens, UniProt Q9NWZ3); test: Upstate kinase activity inhibition assay IRAK4(h); assay type: biochemical; settings: 4 μM Compound E
T2 construct: purchased Upstate (KinaseProfiler service)

[7] = biological target: T3, PKCε(h) (Homo sapiens, UniProt Q02156); test: Upstate kinase activity inhibition assay PKCε(h); assay type: biochemical; settings: 40 min; read-out: percentage of enzyme activity that remains
T3 construct: purchased Upstate (KinaseProfiler service)

[8] = biological target: T4, MRCKβ(h) (Homo sapiens, UniProt Q9Y5S2); test: Upstate kinase activity inhibition assay MRCKβ(h); assay type: biochemical; settings: 40 min; read-out: percentage of enzyme activity that remains
T4 construct: purchased Upstate (KinaseProfiler service)

[9] = biological target: T5, CDK3/cyclinE(h) (Homo sapiens, UniProt Q00526); test: Upstate kinase activity inhibition assay CDK3/cyclinE(h); assay type: biochemical; settings: 4 μM Compound E
T5 construct: purchased Upstate (KinaseProfiler service)

[10] = biological target: PKCζ(h) (Homo sapiens, UniProt Q05513); test: Upstate kinase activity inhibition assay PKCζ(h); settings: 40 min, read-out: percentage of enzyme activity that remains
[11] = biological target: SRPK2(h) (Homo sapiens, UniProt P78362); test: Upstate kinase activity inhibition assay SRPK2(h); settings: 40 min, read-out: percentage of enzyme activity that remains
[12] = biological target: T6, PKCη(h) (Homo sapiens, UniProt P24723); test: Upstate kinase activity inhibition assay PKCη(h); assay type: biochemical; settings: 40 min; read-out: percentage of enzyme activity that remains
T6 construct: purchased Upstate (KinaseProfiler service)

[13] = biological target: NEK7(h) (Homo sapiens, UniProt Q8TDX7); test: Upstate kinase activity inhibition assay NEK7(h); assay type: biochemical; settings: 40 min; read-out: percentage of enzyme activity that remains
[14] = biological target: ROCK-I(h) (Homo sapiens, UniProt Q13464); test: Upstate kinase activity inhibition assay ROCK-I(h); settings: 40 min, read-out: percentage of enzyme activity that remains
[15] = biological target: T7, PASK(h) (Homo sapiens, UniProt Q96RG2); test: Upstate kinase activity inhibition assay PASK(h); assay type: biochemical; settings: 40 min; read-out: percentage of enzyme activity that remains
T7 construct: purchased Upstate (KinaseProfiler service)

[16] = biological target: SIK(h) (Homo sapiens, UniProt P57059); test: Upstate kinase activity inhibition assay SIK(h)
[17] = biological target: CDK1/cyclinB(h) (Homo sapiens, UniProt P06493); test: Upstate kinase activity inhibition assay CDK1/cyclinB(h); settings: 40 min, read-out: percentage of enzyme activity that remains
[18] = biological target: ErbB4(h) (Homo sapiens, UniProt Q15303); test: Upstate kinase activity inhibition assay ErbB4(h); settings: 40 min, read-out: percentage of enzyme activity that remains
[19] = biological target: SAPK2a(h) (Homo sapiens, UniProt Q16539); test: Upstate kinase activity inhibition assay SAPK2a(h)
[20] = biological target: JAK3(h) (Homo sapiens, UniProt P52333); test: Upstate kinase activity inhibition assay JAK3(h); settings: 40 min, read-out: percentage of enzyme activity that remains
[21] = biological target: Snk(h) (Homo sapiens, UniProt Q9NYY3); test: Upstate kinase activity inhibition assay Snk(h)
[22] = biological target: Syk(h) (Homo sapiens, UniProt P43405); test: Upstate kinase activity inhibition assay Syk(h)
[23] = biological target: ARK5(h) (Homo sapiens, UniProt O60285); test: Upstate kinase activity inhibition assay ARK5(h)
[24] = biological target: EphA1(h) (Homo sapiens, UniProt P21709); test: Upstate kinase activity inhibition assay EphA1(h); settings: 40 min, read-out: percentage of enzyme activity that remains
[25] = biological target: T8, PrKX(h) (Homo sapiens, UniProt P51817); test: Upstate kinase activity inhibition assay PrKX(h); assay type: biochemical; settings: 40 min; read-out: percentage of enzyme activity that remains
T8 construct: purchased Upstate (KinaseProfiler service)

[26] = biological target: T9, PKCβI(h) (Homo sapiens, UniProt P05771); test: Upstate kinase activity inhibition assay PKCβI(h); assay type: biochemical; settings: 40 min; read-out: percentage of enzyme activity that remains
T9 construct: purchased Upstate (KinaseProfiler service)

[27] = biological target: T10, Ros(h) (Homo sapiens, UniProt P08922); test: Upstate kinase activity inhibition assay Ros(h); assay type: biochemical; settings: 40 min; read-out: percentage of enzyme activity that remains
T10 construct: purchased Upstate (KinaseProfiler service)

[28] = biological target: EphA2(h) (Homo sapiens, UniProt P29317); test: Upstate kinase activity inhibition assay EphA2(h); settings: 40 min, read-out: percentage of enzyme activity that remains
[29] = biological target: T11, SAPK3(h) (Homo sapiens, UniProt P53778); test: Upstate kinase activity inhibition assay SAPK3(h); assay type: biochemical; settings: 40 min; read-out: percentage of enzyme activity that remains
T11 construct: purchased Upstate (KinaseProfiler service)

[30] = biological target: HIPK2(h) (Homo sapiens, UniProt Q9H2X6); test: Upstate kinase activity inhibition assay HIPK2(h); settings: 40 min, read-out: percentage of enzyme activity that remains
Sequence of HIPK2(h) (Q9H2X6 whole entry): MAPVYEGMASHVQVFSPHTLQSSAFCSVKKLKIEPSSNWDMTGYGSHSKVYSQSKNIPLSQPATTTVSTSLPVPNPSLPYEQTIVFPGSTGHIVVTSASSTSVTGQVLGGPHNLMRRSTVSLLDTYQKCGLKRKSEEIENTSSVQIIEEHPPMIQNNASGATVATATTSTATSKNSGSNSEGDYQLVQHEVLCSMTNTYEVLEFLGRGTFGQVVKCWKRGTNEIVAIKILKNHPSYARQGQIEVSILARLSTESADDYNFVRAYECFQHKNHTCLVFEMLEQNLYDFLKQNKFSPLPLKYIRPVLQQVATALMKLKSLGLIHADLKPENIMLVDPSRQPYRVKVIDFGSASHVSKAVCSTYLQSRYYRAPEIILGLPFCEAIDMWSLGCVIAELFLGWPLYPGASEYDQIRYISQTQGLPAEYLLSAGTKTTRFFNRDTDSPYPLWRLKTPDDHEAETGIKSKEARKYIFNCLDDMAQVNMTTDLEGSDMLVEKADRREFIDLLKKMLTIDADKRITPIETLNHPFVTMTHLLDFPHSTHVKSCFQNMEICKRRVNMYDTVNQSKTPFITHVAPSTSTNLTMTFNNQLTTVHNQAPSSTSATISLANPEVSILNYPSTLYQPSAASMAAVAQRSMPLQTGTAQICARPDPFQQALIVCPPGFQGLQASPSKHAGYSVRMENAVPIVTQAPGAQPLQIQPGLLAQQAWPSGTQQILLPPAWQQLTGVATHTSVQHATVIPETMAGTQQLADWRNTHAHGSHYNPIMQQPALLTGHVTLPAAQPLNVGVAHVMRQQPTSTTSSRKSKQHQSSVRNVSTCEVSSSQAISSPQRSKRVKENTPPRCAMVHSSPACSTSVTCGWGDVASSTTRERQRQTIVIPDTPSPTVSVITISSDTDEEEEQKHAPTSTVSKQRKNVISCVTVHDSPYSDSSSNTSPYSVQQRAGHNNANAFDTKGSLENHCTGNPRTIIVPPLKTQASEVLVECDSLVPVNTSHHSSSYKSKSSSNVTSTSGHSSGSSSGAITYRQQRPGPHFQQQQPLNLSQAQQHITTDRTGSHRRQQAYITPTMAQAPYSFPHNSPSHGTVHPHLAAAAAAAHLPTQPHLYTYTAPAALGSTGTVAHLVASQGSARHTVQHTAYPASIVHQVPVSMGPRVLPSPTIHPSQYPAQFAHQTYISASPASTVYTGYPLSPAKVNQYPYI

Sequence of CDK1/cyclinB(h) (P06493 whole entry): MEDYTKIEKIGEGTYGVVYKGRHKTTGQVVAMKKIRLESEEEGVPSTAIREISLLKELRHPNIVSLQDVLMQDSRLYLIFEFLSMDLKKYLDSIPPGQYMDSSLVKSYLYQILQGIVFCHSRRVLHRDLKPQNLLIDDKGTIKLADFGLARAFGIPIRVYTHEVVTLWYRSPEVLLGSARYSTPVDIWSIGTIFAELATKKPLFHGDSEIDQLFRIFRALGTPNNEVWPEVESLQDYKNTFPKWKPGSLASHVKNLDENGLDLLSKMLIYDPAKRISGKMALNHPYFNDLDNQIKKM
Sequence of CDK1/cyclinB(h) (P14635 whole entry partner): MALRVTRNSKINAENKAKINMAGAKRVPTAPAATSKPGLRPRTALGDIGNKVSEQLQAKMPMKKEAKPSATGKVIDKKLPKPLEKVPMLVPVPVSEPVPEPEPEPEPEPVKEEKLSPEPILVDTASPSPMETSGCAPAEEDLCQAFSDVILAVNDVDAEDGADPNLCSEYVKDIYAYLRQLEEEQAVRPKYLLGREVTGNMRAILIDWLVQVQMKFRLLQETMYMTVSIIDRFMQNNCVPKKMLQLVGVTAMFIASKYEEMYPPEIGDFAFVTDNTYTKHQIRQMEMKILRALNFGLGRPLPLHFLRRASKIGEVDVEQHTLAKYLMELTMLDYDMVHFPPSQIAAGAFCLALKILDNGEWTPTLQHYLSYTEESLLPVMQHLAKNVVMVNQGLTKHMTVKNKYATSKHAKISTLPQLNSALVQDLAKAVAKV
Sequence of SIK(h) (P57059 whole entry): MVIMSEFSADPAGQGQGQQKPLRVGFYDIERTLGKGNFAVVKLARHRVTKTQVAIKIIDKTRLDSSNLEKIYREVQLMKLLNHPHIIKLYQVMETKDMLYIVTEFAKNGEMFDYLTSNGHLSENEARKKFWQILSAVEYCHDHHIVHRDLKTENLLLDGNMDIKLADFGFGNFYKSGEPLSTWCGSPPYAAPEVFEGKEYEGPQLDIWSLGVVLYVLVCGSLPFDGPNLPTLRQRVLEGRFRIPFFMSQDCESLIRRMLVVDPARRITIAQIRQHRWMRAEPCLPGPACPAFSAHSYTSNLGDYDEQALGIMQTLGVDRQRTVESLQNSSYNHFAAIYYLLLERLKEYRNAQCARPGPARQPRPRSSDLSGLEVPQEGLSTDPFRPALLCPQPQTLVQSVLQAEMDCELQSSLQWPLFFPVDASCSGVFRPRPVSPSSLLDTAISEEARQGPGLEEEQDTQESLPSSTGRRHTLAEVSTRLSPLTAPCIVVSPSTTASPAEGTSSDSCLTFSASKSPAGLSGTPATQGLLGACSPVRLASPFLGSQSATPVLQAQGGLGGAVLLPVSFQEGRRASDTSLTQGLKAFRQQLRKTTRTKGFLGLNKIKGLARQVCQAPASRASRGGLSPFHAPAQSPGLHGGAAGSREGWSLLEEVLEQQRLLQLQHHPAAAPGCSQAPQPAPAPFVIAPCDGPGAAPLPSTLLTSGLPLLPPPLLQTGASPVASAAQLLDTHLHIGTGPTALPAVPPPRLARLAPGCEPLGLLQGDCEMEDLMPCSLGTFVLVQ
Sequence of Snk(h) (Q9NYY3 whole entry): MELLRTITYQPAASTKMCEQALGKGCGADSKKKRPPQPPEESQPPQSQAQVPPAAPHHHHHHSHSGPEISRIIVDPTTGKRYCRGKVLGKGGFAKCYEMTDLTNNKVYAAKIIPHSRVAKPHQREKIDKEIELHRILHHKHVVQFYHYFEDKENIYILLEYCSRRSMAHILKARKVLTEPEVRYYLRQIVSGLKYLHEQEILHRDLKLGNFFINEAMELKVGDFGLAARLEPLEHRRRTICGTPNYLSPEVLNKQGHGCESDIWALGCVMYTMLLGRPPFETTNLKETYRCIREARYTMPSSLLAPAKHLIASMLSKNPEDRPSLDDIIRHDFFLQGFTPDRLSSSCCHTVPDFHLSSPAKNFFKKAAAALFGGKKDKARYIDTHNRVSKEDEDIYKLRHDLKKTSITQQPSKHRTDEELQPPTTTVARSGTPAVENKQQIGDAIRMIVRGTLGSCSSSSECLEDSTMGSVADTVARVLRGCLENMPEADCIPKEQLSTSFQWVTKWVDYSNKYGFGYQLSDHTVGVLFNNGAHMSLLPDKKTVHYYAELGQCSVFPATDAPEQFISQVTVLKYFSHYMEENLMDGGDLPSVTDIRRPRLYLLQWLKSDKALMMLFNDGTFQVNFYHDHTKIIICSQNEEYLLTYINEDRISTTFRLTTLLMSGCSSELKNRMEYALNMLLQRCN
Sequence of Met(h) (P08581 25-1390): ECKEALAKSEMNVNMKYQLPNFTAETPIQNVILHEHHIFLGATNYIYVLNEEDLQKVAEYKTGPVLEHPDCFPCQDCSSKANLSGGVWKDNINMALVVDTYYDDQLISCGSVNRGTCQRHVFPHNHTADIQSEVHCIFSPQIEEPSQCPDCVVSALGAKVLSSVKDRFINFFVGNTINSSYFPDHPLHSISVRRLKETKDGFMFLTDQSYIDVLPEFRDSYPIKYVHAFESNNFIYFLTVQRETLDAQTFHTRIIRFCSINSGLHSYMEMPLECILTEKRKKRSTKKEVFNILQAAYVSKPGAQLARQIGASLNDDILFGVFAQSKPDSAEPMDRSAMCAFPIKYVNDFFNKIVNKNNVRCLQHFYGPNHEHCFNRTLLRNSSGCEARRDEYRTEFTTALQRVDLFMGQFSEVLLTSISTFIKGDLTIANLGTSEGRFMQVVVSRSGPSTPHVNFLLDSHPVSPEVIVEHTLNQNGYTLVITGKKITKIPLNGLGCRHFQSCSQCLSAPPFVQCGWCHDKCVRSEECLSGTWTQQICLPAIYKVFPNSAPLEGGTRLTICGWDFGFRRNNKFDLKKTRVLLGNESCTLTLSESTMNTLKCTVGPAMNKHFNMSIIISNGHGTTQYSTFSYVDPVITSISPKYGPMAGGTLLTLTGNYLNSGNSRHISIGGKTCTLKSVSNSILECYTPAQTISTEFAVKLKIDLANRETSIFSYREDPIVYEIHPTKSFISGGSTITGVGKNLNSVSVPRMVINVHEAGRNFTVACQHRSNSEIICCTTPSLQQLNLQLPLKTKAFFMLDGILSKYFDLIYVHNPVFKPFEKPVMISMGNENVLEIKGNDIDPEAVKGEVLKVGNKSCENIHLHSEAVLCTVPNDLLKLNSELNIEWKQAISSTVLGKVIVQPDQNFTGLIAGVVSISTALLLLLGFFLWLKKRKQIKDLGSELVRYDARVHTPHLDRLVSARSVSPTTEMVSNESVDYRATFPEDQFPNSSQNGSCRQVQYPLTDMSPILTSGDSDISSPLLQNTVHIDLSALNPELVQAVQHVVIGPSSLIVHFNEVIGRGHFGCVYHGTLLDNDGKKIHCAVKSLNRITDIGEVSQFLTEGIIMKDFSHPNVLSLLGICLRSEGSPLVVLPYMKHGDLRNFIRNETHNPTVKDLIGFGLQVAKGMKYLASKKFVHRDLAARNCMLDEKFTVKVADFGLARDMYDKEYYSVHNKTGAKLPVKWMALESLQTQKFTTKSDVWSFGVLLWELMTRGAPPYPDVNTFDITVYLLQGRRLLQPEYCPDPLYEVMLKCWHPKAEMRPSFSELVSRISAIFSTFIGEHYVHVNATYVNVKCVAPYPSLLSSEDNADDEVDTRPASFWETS
Sequence of NEK7(h) (Q8TDX7 whole entry): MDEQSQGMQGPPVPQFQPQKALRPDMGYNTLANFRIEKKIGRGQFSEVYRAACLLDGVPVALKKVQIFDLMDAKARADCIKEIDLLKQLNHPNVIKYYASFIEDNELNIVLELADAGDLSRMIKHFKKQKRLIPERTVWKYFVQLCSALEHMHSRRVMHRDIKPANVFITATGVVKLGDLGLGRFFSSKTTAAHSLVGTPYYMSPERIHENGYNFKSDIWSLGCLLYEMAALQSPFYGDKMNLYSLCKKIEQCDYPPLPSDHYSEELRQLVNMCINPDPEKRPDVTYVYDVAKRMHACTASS

In the case of Cc1cc(Nc2cc(N3CCN(C)CC3)nc(Sc3ccc(NC(=O)C4CC4)cc3)n2)n[nH]1 [Compound E, Cyclopropane carboxylic acid {4-[4-(4-methyl-piperazin-1-yl)-6-(5-methyl-2H-pyrazol-3-ylamino)-pyrimidin-2-ylsulphanyl]-phenyl}-amide], the “percentage of enzyme activity that remains” value ([1]; 0.2 μM Compound E) is reported as 105%, the “percentage of enzyme activity that remains” value ([1]; 4 μM Compound E) is reported as 50% and the remaining activity at 0.2 µM [2] is reported as 122%. The remaining activity at 4 µM [2] was 99%, the remaining activity at 0.2 µM [3] was 98% and the remaining activity at 4 µM [3] was 8%. For the same molecule, the remaining activity at 0.2 µM [4] was 96%, the remaining activity at 4 µM [4] was 82% and the remaining activity at 0.2 µM [5] was 100%. The “percentage of enzyme activity that remains” value [6] was 90%, the remaining activity at 0.2 µM [7] was 98% and the remaining activity at 4 µM [7] was 96%. For the same molecule, the remaining activity at 4 µM [8] was 100%, the “percentage of enzyme activity that remains” value [9] was 97% and the remaining activity at 0.2 µM [10] was 107%. It also gave a remaining activity at 4 µM [10] of 97%, a remaining activity at 0.2 µM [11] of 122% and a remaining activity at 4 µM [11] of 109%. For the same molecule, the remaining activity at 0.2 µM [12] was 98%, the remaining activity at 4 µM [12] was 100% and the remaining activity at 0.2 µM [13] was 84%. The remaining activity at 4 µM [13] was 83%, the remaining activity at 0.2 µM [14] was 99% and the remaining activity at 4 µM [14] was 91%. For the same molecule, the remaining activity at 0.2 µM [15] was 98%, the “percentage of enzyme activity that remains” value ([16]; 0.2 μM Compound E) was 95% and the “percentage of enzyme activity that remains” value ([16]; 4 μM Compound E) was 61%. It also gave a remaining activity at 0.2 µM [17] of 108%, a remaining activity at 4 µM [17] of 102% and a remaining activity at 0.2 µM [18] of 53%. The remaining activity at 4 µM [18] was 52%, the “percentage of enzyme activity that remains” value ([19]; 0.2 μM Compound E) was 116% and the “percentage of enzyme activity that remains” value ([19]; 4 μM Compound E) was 123%. The remaining activity at 0.2 µM [20] was 107%, the remaining activity at 4 µM [20] was 105% and the “percentage of enzyme activity that remains” value ([21]; 0.2 μM Compound E) was 99%. For the same molecule, the “percentage of enzyme activity that remains” value ([21]; 4 μM Compound E) was 103%, the “percentage of enzyme activity that remains” value ([22]; 0.2 μM Compound E) was 113% and the “percentage of enzyme activity that remains” value ([22]; 4 μM Compound E) was 63%. The “percentage of enzyme activity that remains” value ([23]; 0.2 μM Compound E) was 53%, the “percentage of enzyme activity that remains” value ([23]; 4 μM Compound E) was 11% and the remaining activity at 0.2 µM [24] was 93%. The remaining activity at 4 µM [24] was 27%, the remaining activity at 0.2 µM [25] was 97% and the remaining activity at 4 µM [25] was 96%. It also gave a remaining activity at 0.2 µM [26] of 100%, a remaining activity at 4 µM [26] of 98% and a remaining activity at 4 µM [27] of 80%. The remaining activity at 0.2 µM [28] was 78%, the remaining activity at 4 µM [28] was 10% and the remaining activity at 0.2 µM [29] was 132%. It also gave a remaining activity at 4 µM [29] of 115%, a remaining activity at 0.2 µM [30] of 107% and a remaining activity at 4 µM [30] of 110%.

Source: patent US20090105270A1, “Kinase inhibition and anticancer therapy” (priority 2007, published 2009)
